Experimental data from ChEMBL document CHEMBL1127297, “Isolation and structure/activity features of halomon-related antitumor monoterpenes from the red alga Portieria hornemannii” (1994).

How the values were obtained:
Tumor Cell line [1] = assay: Tested for in vitro cytotoxicity of 60 human tumor cell lines in National Cancer Institute (NCI) and the value was expressed as LC50; assay type: functional; settings: read-out: LC50 (the source's name)
Tumor Cell line [2] = assay: Tested for in vitro cytotoxicity of 60 human tumor cell lines in National Cancer Institute (NCI); assay type: functional

SMILES | CC50 (Tumor Cell line [1]) [µM] | GI50 (Tumor Cell line [2]) [µM] | TGI (Tumor Cell line [2]) [µM]
C=C(Cl)[C@](Cl)(CBr)CCC(Cl)=C(C)C | 17 | 0.741 | 3.39
C=C(Cl)[C@](Cl)(CBr)CC[C@H](Cl)C(C)(C)Br | 16.2 | 1.32 | 4.47
CC1(C)[C@H](Cl)C=C/C(=C\CCl)[C@@H]1Cl | > 100 | 20 | 47.9
CC1(C)C(Cl)CC(Br)/C(=C\CCl)C1Cl (stereo unspecified) | 20 | 1.15 | 4.68
C=C[C@](Cl)(CBr)CC[C@@H](Br)C(C)(C)Cl | > 100 | 26.1 | 77
C=CC1=CCC(Br)C(C)(C)C1Cl (stereo unspecified) | > 100 | > 100 | > 100
C=CC(Cl)(CBr)CCC=C(C)C (stereo unspecified) | > 100 | 33.1 | > 100
C=C(Cl)[C@](Cl)(CBr)CCC=C(C)C | > 100 | 47 | > 100
CC1(C)C(Br)=C(C(Cl)CBr)CCC1Br (stereo unspecified) | 93.3 | 21.9 | 45.7
C=C(Cl)/C(=C\Br)CCC=C(C)C | > 100 | 19.5 | 44.7
C=C(Cl)[C@](Cl)(CBr)CCC(Br)=C(C)C | 13.5 | 0.691 | 3.02
C=C(Cl)[C@](Cl)(CBr)CC[C@@H](Br)C(C)(C)Cl [HALOMON] | 11.5 | 0.676 | 3.02
